Results on 3 molecules are retold here after US9993002B2, “1,2,3-thiadiazol-5yl-urea derivatives, use thereof for regulating plant senescence and preparations containing these derivatives” (USTAV EXPERIMENTALNI BOTANIKY AV CR, V.V.I., priority 2014, dated 2018).

Marks after values point to notes of the source that are not given here.

Format in all cases: in vivo
Experiment [1] concerns winter wheat, Triticum aestivum cv. Hereward. As to the kind of experiment: Drought stress tolerance of wheat plants. To be noted: 100 nM aqueous solution, drought stress last 20 days, 30 days after planting; untreated 37%. The protocol:
To investigate the effect of 1-(2-methoxy-ethyl)-3-[1,2,3]thiadiazol-5-yl-urea and 1-furfuryl-[1,2,3]thiadiazol-5-yl-urea to drought-induced senescence, seeds of winter wheat, Triticum aestivum cv. Hereward, were washed under running water for 24 hours and then sown into trays with perlite (30×40 cm) and soaked by water, or 100 nM aqueous solution of 1-(2-methoxy-ethyl)-3-[1,2,3]thiadiazol-5-yl-urea or 1-furfuryl-[1,2,3]thiadiazol-5-yl-urea. The trays were placed in a growth chamber at 25° C. with 8/16 hours light/dark cycle at intensity […]. Plants were under drought stress last 20 days. 30 Days after planting it was counted how many plants survived on individual trays.

Experiment [2] shares this test system. Nature of the experiment: Saline stress-induced senescence of wheat plants. As to conditions: 100 nM, 75 mM NaCl, assessed 25 and 30 days after planting. The procedure:
To investigate the effect of compound 6 to saline-induced senescence seeds of winter wheat, Triticum aestivum cv. Hereward, were washed under running water for 24 hours and then sown to 1 L containers on perlite soaked with water or 100 nM water solution of […]. Containers were placed in the growth chamber at 25° C. with a 16/8 h light period at 50 μmol·m^−2·s^−1. Seven days after planting the plants were treated by 75 mM NaCl solution. Plants were allowed to grow and 25 and 30 days after planting the result was assessed.

The test system of experiment [3] is spring barley (Hordeum vulgare), malting variety Bojos. As to the kind of experiment: Field experiment, spring barley, foliar spraying. As to conditions: 5 μM foliar; for Grain yield: control 7.653; for Number of grains/spike: control 23.49; for Thousand grain weight: control 45.85; for Number of tillers: control 4.61; for Number of spikes/m^2: control 700.4. From the text: The initial field experiments were done with spring barley (Hordeum vulgare), malting variety Bojos in field plots of University of Palacky in Olomouc. All field experiments were done according to criteria for Good Experimental Practices. Six repetitions (each 10 m^2) were used per one variant, sowing rate was 3.5 millions of germinated grains per hectare. Field trials were not treated by growth regulators and fungicides, except of applied compounds. Compounds 1-(2-methoxy-ethyl)-3-[1,2,3]thiadiazol-5-yl-urea and 1-(2-chloro-ethyl)-3-[1,2,3]thiadiazol-5-yl-urea were applied once in indicated time (Tillering, BBCH 23-25 or Inflorescence emergence, BBCH 51-53) by foliar spraying in concentration 5 μM. For each variant at least 50 plants were used to obtain morphology parameters. Statistical evaluation was executed in stat. program PAST v. 2.17c.

The test system of another experiment is spring barley. Nature of the experiment: Field experiments, spring barley, years 2014 and 2015, foliar spray. The procedure: (§1) All field experiments were done according to criteria for Good Experimental Practices. Six repetitions (10 m^2 each) were used per one variant. Field trials were not treated by growth regulators and fungicides, except of applied compound 1-furfuryl-[1,2,3]thiadiazol-5-yl-urea. N-furfuryl-N′-1,2,3-thiadiazol-5-yl-urea was applied once at the precise time (extension growth BBCH 50), by foliar spray at a concentration of 25 μM. For each variant at least 50 plants were used to obtain morphology parameters. Statistical evaluation was executed in stat. program PAST v. 2.17c.
All field experiments were done according to criteria for Good Experimental Practices as described in example 17. N-furfuryl-N′-1,2,3-thiadiazol-5-yl-urea was applied once at the precise time (extension growth BBCH 50), by foliar spray at a concentration of 25 μM in a year 2014 and at a concentration of 5 μM in a year 2015. For each variant at least 50 plants were used to obtain morphology parameters. Statistical evaluation was executed in stat. program PAST v. 2.17c.

In a further experiment the test system is winter oilseed rape. As to the kind of experiment: Field experiment, winter oilseed rape, foliar spray. As to conditions: 25 μM foliar spray, BBCH 50. The procedure:
as §1

[4] abbreviates: Inflorescence emergence, BBCH 51-53.
The mark [5] stands for this setting: Tillering, BBCH 23-25, listed as compound 6.

Take `COCCNC(=O)Nc1cnns1` [Compound 6, 1-(2-methoxy-ethyl)-3-[1,2,3]thiadiazol-5-yl-urea]: in experiment [1], the plants survived came to 82%. In addition, the “effect on saline stress-induced senescence (in words)” value in experiment [2] is given as “significantly delays stress-induced senescence”. In addition, in experiment [3] (setting [4]), the “Grain yield, % of control” value is 103.6%; the “Number of grains/spike, % of control” value is recorded as 99.5%; the “Thousand grain weight, % of control” value came to 102.0%; the Grain yield stood at 7.927 t/ha. In addition, in experiment [3] (setting [4]), the Number of grains/spike was determined as 23.37 and the Thousand grain weight was 46.77 g. Also, in experiment [3] (Tillering, BBCH 23-25), the “Grain yield, % of control” value worked out at 111.3%; the “Number of grains/spike, % of control” value was found to be 103.3%; the “Number of spikes/m^2, % of control” value is listed as 110.3* %; the “Number of tillers, % of control” value was 115.7* %. Further, in experiment [3] (Tillering, BBCH 23-25), the “Thousand grain weight, % of control” value was 102.9%; the Number of tillers was 5.3*; the Grain yield turned out to be 8.517 t/ha; the Number of grains/spike worked out at 24.27. Further, in experiment [3] (Tillering, BBCH 23-25), the Thousand grain weight was found to be 47.18 g and the “Number of spikes/m^2” value is listed as 772.4*. In experiment [3] (setting [5]), the “Number of spikes/m^2, % of control” value came to 110.3% and the “Number of tillers, % of control” value is 115.7%.
For `O=C(NCCCl)Nc1cnns1` [Compound 65, 1-(2-Chloro-ethyl)-3-[1,2,3]thiadiazol-5-yl-urea], in experiment [3] (setting [4]), the “Grain yield, % of control” value is on record as 109.7%; the “Number of grains/spike, % of control” value was determined as 102.9%; the “Thousand grain weight, % of control” value was found to be 100.2%; the Grain yield was determined as 8.398 t/ha. Also, in experiment [3] (setting [4]), the Number of grains/spike was determined as 24.17 and the Thousand grain weight stood at 45.96 g. In experiment [3] (Tillering, BBCH 23-25), the “Grain yield, % of control” value was 109.3%; the “Number of grains/spike, % of control” value came out at 103.9%; the “Number of spikes/m^2, % of control” value is on record as 109.2* %; the “Number of tillers, % of control” value came out at 109.2%. For the same molecule, in experiment [3] (Tillering, BBCH 23-25), the “Thousand grain weight, % of control” value is 99.0%; the Number of tillers is recorded as 5.0; the Grain yield is 8.362 t/ha; the Number of grains/spike stood at 24.42. For the same molecule, in experiment [3] (Tillering, BBCH 23-25), the Thousand grain weight is 45.35 g and the “Number of spikes/m^2” value is listed as 764.8*. The “Number of spikes/m^2, % of control” value in experiment [3] (Tillering, BBCH 23-25, listed as compound 65) is 109.2%.
In experiment [1], `O=C(NCc1ccco1)Nc1cnns1` [Compound 84, N-furfuryl-N′-1,2,3-thiadiazol-5-yl-urea] came in with a plants survived of 71%. Besides, the “WTK, % of control” value with spring barley (Year 2014, 25 μM foliar spray) was found to be 100.06%; with winter oilseed rape (listed as Comp. 84) it was 110.3%. The Seed yield in the experiment with spring barley (Year 2014, 25 μM foliar spray, control 7.65) is listed as 8.02 t/ha; in the experiment on spring barley (Year 2015, 5 μM foliar spray, control 7.01), 7.49 t/ha; with winter oilseed rape (control 4.994), 6.038 t/ha. In the experiment on spring barley (Year 2014, 25 μM foliar spray, control 23.5), this molecule displayed a grains per ear of 24.6. The WTK in the experiment with spring barley (Year 2014, 25 μM foliar spray, control 45.85) was 45.88 g. Further, the “WTK (weight of a thousand kernels)” value in the experiment on winter oilseed rape (control 4.35) was found to be 4.8 g.
